The values below come from patent US20240309043A1, “THERAPEUTICALLY ACTIVE STEROIDAL DERIVATIVES” (Organon R&D Finland Ltd., priority 2017, published 2024).

Holding throughout (type): biochemical
Assay [1] deals with HSD1 enzyme that is expressed in rabbit placenta tissue. Kind of assay: Inhibition of E1 to E2 conversion in rabbit placenta tissue homogenate. The settings on record: inhibitor 100 nM, 30 nM estrone, 30 min. How it is done: The assay is based on an enzymatic reaction where HSD1 enzyme that is expressed in rabbit placenta tissue converts its natural substance estrone (E1) to estradiol (E2) in the presence of a co-factor β-NADPH.
Homogenization of rabbit placenta tissue: Weight a piece of the frozen tissue into a Precellys ck28 bead tube. Add buffer solution (20 mM KH2PO4 with 1 mM EDTA, pH 7,4) in 1:2 ratio (e.g. 300 mg of tissue:600 μl reaction buffer solution). Insert the bead tubes to homogenizer and homogenize 2×30 s. 6000 rpm. Centrifugated 5 min., 2600 rpm at +4° C. and collect supernatant. Aliquots of homogenate are stored in −80° C.
Assay—Inhibition of E1 to E2 conversion in rabbit placenta tissue: The reaction takes place in a buffer solution (20 mM KH2PO4 with 1 mM EDTA, pH 7,4), including appropriate amount of rabbit placenta homogenate, co-factor (1 mM β-NADPH), Substrate (30 nM estrone), labelled substrate as tracer (5 nM [^3H]-estrone). During a 30-minute incubation part of the estrone is converted to estradiol. The reaction is stopped by lowering the pH to 1 with 10% trichloro acetic acid (TCA). The substrate and conversion products are analyzed by HPLC and a Scintillation counter analyzer. Total radioactivity for estrone and estradiol were determined in each sample and percent conversion of estrone to estradiol was calculated according to the following formula:
Percent inhibition was calculated flowingly: % inhibition=100−% conversion.

Assay [2] addresses T1, recombinant human 17β-HSD2 (Homo sapiens, UniProt P37059).
T1 construct: made in house; host or cells: Sd9 (Sf9) insect cells, baculovirus (Bac to Bac Expression System)
T1 sequence (P37059 1-387): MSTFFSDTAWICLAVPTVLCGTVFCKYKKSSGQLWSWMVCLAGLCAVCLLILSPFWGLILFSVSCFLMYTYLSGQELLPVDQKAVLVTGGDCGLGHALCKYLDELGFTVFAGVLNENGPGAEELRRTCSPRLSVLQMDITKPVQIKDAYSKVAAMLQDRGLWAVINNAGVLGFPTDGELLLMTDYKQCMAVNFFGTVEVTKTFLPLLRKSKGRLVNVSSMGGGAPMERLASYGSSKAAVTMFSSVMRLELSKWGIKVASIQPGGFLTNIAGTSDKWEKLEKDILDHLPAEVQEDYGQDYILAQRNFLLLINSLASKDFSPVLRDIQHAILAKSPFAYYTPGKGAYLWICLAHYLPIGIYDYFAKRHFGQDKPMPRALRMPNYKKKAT
As to the kind of experiment: Inhibition of recombinant human 17β-HSD2. The settings on record: inhibitor 1 μM; 50 nM estradiol, 1 mM NADH, 30 min RT. How it is done: 17β-HSD2 production and isolation: Similarly to 17β-HSD1 the Recombinant baculovirus was generated by the “Bac to Bac Expression System” (Invitrogen). Recombinant bacmid was transfected to Sd9 insect cells using “Cellfectin Reagent” (Invitrogen). 60 h later cells were harvested and supernatant were fractionated by the following protocol: • cells were dissolved into 40 ml of A-buffer (40 mM TRIS, pH 8.0, 20% glycerol, 20 μM NAD, 0.4 mM PMSF, 150 mM NaCl, 0.5% dodecyl-β-maltoside+protease inhibitor cocktail) • cells were sonicated • lysate was incubated on ice for 15 min • lysate was centrifuged 5000 rpm 15 min, +4° C. • centrifugation of the supernatant 180 000 g 30 min, +4° C. • pellet was dissolved into 8 ml of A-buffer • not resuspended material was removed by centrifugation 5000 rpm min, +4° C. • the clear supernatant was divided into 100 μl aliquots and were stored frozen until determination of enzymatic activity.
The amount of 17β-HSD2 was analysed by immunoblotting and total protein concentration of each extract batch was determined.
Assay—Inhibition of recombinant human 17β-HSD2: Recombinant protein (4 μg/ml) was incubated in 20 mM KH2PO4 pH 8.5 with 50 nM estradiol (including 800 000 cpm/ml of ^3H-estradiol) and 1 mM NADH for 30 min at RT, in the presence of the potential inhibitor at concentrations 1 μM or 0.1 μM. Inhibitor stock solutions were prepared in DMSO. Final concentration of DMSO was adjusted to 1% in all samples. The enzyme reaction was stopped by addition of 10% trichloroacetic acid (final concentration). Samples were centrifuged in a microtiter plate at 4000 rpm for 10 min. Supernatants were applied to reverse phase HPLC on a Waters Symmetry C18 column, equipped with a Waters Sentry Guard column. Isocratic HPLC runs were performed at RT at a flow rate of 1 ml/min in acetonitrile:water 48:52 as running solvent. Radioactivity was monitored in the eluate by a Scintillation Analyzer. Total radioactivity for estrone and estradiol were determined in each sample and percent conversion of estradiol to estrone was calculated according to the following formula:
(§1) [formula] Percent inhibition was calculated flowingly: % inhibition=100−% conversion

Assay [3] concerns the target T2, recombinant human 17β-HSD1 (Homo sapiens, UniProt P14061).
T2 construct: made in house; host or cells: Sd9 (Sf9) insect cells, baculovirus (Bac to Bac Expression System)
T2 sequence (P14061 1-328): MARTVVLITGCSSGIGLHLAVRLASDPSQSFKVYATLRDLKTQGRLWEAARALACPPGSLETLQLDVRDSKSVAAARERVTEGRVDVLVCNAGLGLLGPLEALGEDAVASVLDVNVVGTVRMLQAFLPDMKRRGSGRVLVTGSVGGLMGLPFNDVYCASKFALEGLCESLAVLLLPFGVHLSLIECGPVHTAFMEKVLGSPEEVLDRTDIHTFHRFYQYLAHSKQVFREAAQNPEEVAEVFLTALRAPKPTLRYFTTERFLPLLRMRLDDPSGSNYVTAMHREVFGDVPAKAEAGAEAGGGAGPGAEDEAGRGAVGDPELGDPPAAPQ
Kind of assay: Inhibition of recombinant human 17β-HSD1. Conditions: inhibitor 100 nM; 30 nM estrone, 1 mM NADPH, 30 min RT. How it is done:
17β-HSD1 production and isolation: Recombinant baculovirus was generated by the “Bac to Bac Expression System” (Invitrogen). Recombinant bacmid was transfected to Sd9 insect cells using “Cellfectin Reagent” (Invitrogen). 60 h later cells were harvested; the microsomal fraction was isolated as described by Puranen, T. J., Poutanen, M. H., Peltoketo, H. E., Vihko, P. T. and Vihko, R. K. (1994) Site-directed mutagenesis of the putative active site of human 17 β-hydroxysteroid dehydrogenase type 1. Biochem. J. 304: 289-293. Aliquots were stored frozen until determination of enzymatic activity.
Assay—Inhibition of recombinant human 17β-HSD1: Recombinant protein (1 μg/ml) was incubated in 20 mM KH2PO4 pH 7.4 with 30 nM estrone (including 800 000 cpm/ml of ^3H-estrone) and 1 mM NADPH for 30 min at RT, in the presence of the potential inhibitor at concentrations 1 μM or 0.1 μM. Inhibitor stock solutions were prepared in DMSO. Final concentration of DMSO was adjusted to 1% in all samples. The enzyme reaction was stopped by addition of 10% trichloroacetic acid (final concentration). Samples were centrifuged in a microtiter plate at 4000 rpm for 10 min. Supernatants were applied to reverse phase HPLC on a Waters Symmetry C18 column, equipped with a Waters Sentry Guard column. Isocratic HPLC runs were performed at RT at a flow rate of 1 ml/min in acetonitrile:water 48:52 as running solvent. Radioactivity was monitored in the eluate by a Scintillation Analyzer. Total radioactivity for estrone and estradiol were determined in each sample and percent conversion of estrone to estradiol was calculated according to the following formula:
as §1

Usually inhibition stands for the drop in the measured response relative to a control, in per cent.

For the compound `C[C@]12CCC3c4ccc(Cl)cc4CCC3C1[C@H](CCC(=O)N1CCC3(CCOCC3)C1)C/C2=N\O` (stereo partly drawn) [Compound 48, 3-((13S,15R,E)-3-chloro-17-(hydroxyimino)-13-methyl-7,8,9,11,12,13,14,15,16,17-decahydro-6H-cyclopenta[a]phenanthren-15-yl)-1-(8-oxa-2-azaspiro[4.5]decan-2-yl)propan-1-one], the “Rabbit placenta inhibition % @100 nM” value in assay [1] is 1%. Moreover, the inhibition at 1 µM in assay [2] was -2%. In addition, the inhibition at 0.1 µM in assay [3] stood at 30%.

Regarding `COc1ccc(NC(=O)CC[C@@H]2C/C(=N\O)[C@@]3(C)CCC4c5ccc(Cl)cc5CCC4C23)nn1` (stereo partly drawn) [Compound 50, 3-((13S,15R,E)-3-chloro-17-(hydroxyimino)-13-methyl-7,8,9,11,12,13,14,15,16,17-decahydro-6H-cyclopenta[a]phenanthren-15-yl)-N-(6-methoxypyridazin-3-yl)propanamide], in assay [1], the “Rabbit placenta inhibition % @100 nM” value is 42%. Further, the inhibition at 1 µM in assay [2] is -2%. Moreover, in assay [3], the inhibition at 0.1 µM was determined as 37%.

Turning to `CCN(CC)C(=O)CC[C@@H]1C/C(=N\O)[C@@]2(C)CCC3c4ccc(Cl)cc4CCC3C12` (stereo partly drawn) [Compound 52, 3-((13S,15R,E)-3-chloro-17-(hydroxyimino)-13-methyl-7,8,9,11,12,13,14,15,16,17-decahydro-6H-cyclopenta[a]phenanthren-15-yl)-N,N-diethylpropanamide], in assay [1], the “Rabbit placenta inhibition % @100 nM” value is reported as 6%. In addition, the inhibition at 1 µM in assay [2] is 2%. In addition, the inhibition at 0.1 µM in assay [3] came to 64%.

In the case of `Cc1cc(NC(=O)CC[C@@H]2C/C(=N\O)[C@@]3(C)CCC4c5ccc(Cl)cc5CCC4C23)no1` (stereo partly drawn) [Compound 54, 3-((13S,15R,E)-3-chloro-17-(hydroxyimino)-13-methyl-7,8,9,11,12,13,14,15,16,17-decahydro-6H-cyclopenta[a]phenanthren-15-yl)-N-(5-methylisoxazol-3-yl)propanamide], in assay [1], the “Rabbit placenta inhibition % @100 nM” value turned out to be 10%. For the same compound, the inhibition at 1 µM in assay [2] was 0%. Besides, in assay [3], the inhibition at 0.1 µM came to 47%.

As for `C[C@]12CCC3c4ccc(Cl)cc4CCC3C1[C@H](CCC(=O)Nc1ccc(F)cn1)C/C2=N\O` (stereo partly drawn) [Compound 58, 3-((13S,15R,E)-3-chloro-17-(hydroxyimino)-13-methyl-7,8,9,11,12,13,14,15,16,17-decahydro-6H-cyclopenta[a]phenanthren-15-yl)-N-(5-fluoropyridin-2-yl)propanamide], in assay [1], the “Rabbit placenta inhibition % @100 nM” value is reported as 1%. In addition, in assay [2], the inhibition at 1 µM was determined as 18%. Besides, in assay [3], the inhibition at 0.1 µM was 60%.

With `Cc1cccnc1NC(=O)CC[C@@H]1C/C(=N\O)[C@@]2(C)CCC3c4ccc(Cl)cc4CCC3C12` (stereo partly drawn) [Compound 60, 3-((13S,15R,E)-3-chloro-17-(hydroxyimino)-13-methyl-7,8,9,11,12,13,14,15,16,17-decahydro-6H-cyclopenta[a]phenanthren-15-yl)-N-(3-methylpyridin-2-yl)propanamide], the “Rabbit placenta inhibition % @100 nM” value in assay [1] is 4%. Further, the inhibition at 1 µM in assay [2] is 2%. Further, the inhibition at 0.1 µM in assay [3] amounted to 38%.

As to `C[C@]12CCC3c4ccc(Cl)cc4CCC3C1[C@H](CCC(=O)Nc1ncccc1F)C/C2=N\O` (stereo partly drawn) [Compound 62, 3-((13S,15R,E)-3-chloro-17-(hydroxyimino)-13-methyl-7,8,9,11,12,13,14,15,16,17-decahydro-6H-cyclopenta[a]phenanthren-15-yl)-N-(3-fluoropyridin-2-yl)propanamide], the “Rabbit placenta inhibition % @100 nM” value in assay [1] was 3%. The “HSD2 inhibition % @1 μM” value in assay [2] is −8%. In addition, the inhibition at 0.1 µM in assay [3] worked out at 45%.

As to `Cc1cnc(NC(=O)CC[C@@H]2C/C(=N\O)[C@@]3(C)CCC4c5ccc(Cl)cc5CCC4C23)o1` (stereo partly drawn) [Compound 64, 3-((13S,15R,E)-3-chloro-17-(hydroxyimino)-13-methyl-7,8,9,11,12,13,14,15,16,17-decahydro-6H-cyclopenta[a]phenanthren-15-yl)-N-(5-methyloxazol-2-yl)propanamide], the “Rabbit placenta inhibition % @100 nM” value in assay [1] was 5%. Moreover, in assay [2], the inhibition at 1 µM was 0%. Further, the inhibition at 0.1 µM in assay [3] was 26%.

For `COc1ccc(NC(=O)CC[C@@H]2C/C(=N\O)[C@@]3(C)CCC4c5ccc(Cl)cc5CCC4C23)nc1` (stereo partly drawn) [Compound 66, 3-((13S,15R,E)-3-chloro-17-(hydroxyimino)-13-methyl-7,8,9,11,12,13,14,15,16,17-decahydro-6H-cyclopenta[a]phenanthren-15-yl)-N-(5-methoxypyridin-2-yl)propanamide], in assay [1], the “Rabbit placenta inhibition % @100 nM” value is 14%. For the same compound, the inhibition at 1 µM in assay [2] amounted to 23%. The inhibition at 0.1 µM in assay [3] worked out at 72%.

As to `C[C@]12CCC3c4ccc(Cl)cc4CCC3C1[C@H](CCC(=O)Nc1ccccn1)C/C2=N\O` (stereo partly drawn) [Compound 68, 3-((13S,15R,E)-3-chloro-17-(hydroxyimino)-13-methyl-7,8,9,11,12,13,14,15,16,17-decahydro-6H-cyclopenta[a]phenanthren-15-yl)-N-(pyridin-2-yl)propanamide], the “Rabbit placenta inhibition % @100 nM” value in assay [1] worked out at 12%. Also, the inhibition at 1 µM in assay [2] is 3%. In addition, the inhibition at 0.1 µM in assay [3] is 67%.
